ChEMBL document CHEMBL1909046, “DrugMatrix in vitro pharmacology data”

Key:
[1] = DRUGMATRIX: Nicotinic Acetylcholine radioligand binding (ligand: [125I] Epibatidine); assay type: cell membranes, Membrane; conditions: imr-32; Not Active = under 50% inhibition at 10 µM
[2] = biological target: Sigma non-opioid intracellular receptor 1 (Homo sapiens, UniProt Q99720); assay: DRUGMATRIX: Sigma1 radioligand binding (ligand: [3H] Haloperidol); assay type: cell membranes, Jurkat, Membrane; conditions: jurkat; Not Active = under 50% inhibition at 10 µM
Sigma non-opioid intracellular receptor 1, sequence (Q99720 whole entry): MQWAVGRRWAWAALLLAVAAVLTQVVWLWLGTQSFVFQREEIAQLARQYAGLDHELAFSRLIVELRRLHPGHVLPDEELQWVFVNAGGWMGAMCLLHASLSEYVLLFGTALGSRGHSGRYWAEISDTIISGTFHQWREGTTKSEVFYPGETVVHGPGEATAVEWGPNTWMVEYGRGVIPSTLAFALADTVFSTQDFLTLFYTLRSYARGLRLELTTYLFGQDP

[3] = biological target: Prostaglandin G/H synthase 1 (Homo sapiens, UniProt P23219); assay: biochemical; assay type: tissue-based, Platelet; conditions: platelet;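 also: inhibition of COX-1 enzyme activity, with arachidonic acid supplied as substrate; in other assays of this panel Not Active means under 50% inhibition at 10 µM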
Prostaglandin G/H synthase 1, sequence (P23219 whole entry): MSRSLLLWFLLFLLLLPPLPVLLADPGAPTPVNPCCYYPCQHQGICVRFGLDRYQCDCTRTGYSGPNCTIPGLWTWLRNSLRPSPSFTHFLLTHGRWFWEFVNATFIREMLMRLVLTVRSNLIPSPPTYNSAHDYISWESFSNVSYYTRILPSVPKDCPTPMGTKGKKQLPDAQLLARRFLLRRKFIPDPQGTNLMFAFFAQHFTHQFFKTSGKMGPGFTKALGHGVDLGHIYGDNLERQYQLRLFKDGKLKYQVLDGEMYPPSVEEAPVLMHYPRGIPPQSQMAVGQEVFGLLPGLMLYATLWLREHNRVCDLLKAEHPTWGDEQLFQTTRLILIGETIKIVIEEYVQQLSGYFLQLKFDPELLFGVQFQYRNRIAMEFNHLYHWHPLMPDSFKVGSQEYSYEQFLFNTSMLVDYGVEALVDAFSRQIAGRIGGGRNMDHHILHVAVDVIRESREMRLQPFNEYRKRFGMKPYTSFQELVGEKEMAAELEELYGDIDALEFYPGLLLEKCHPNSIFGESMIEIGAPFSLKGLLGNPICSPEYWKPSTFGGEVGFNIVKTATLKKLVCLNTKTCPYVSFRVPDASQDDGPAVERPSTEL

Cytochrome P450 2D6 = Cytochrome P450 2D6 (Homo sapiens, UniProt P10635); conditions: bti-tn-5b1-4; also: in other assays of this panel Not Active means under 50% inhibition at 10 µM
Cytochrome P450 2D6, sequence (P10635 whole entry): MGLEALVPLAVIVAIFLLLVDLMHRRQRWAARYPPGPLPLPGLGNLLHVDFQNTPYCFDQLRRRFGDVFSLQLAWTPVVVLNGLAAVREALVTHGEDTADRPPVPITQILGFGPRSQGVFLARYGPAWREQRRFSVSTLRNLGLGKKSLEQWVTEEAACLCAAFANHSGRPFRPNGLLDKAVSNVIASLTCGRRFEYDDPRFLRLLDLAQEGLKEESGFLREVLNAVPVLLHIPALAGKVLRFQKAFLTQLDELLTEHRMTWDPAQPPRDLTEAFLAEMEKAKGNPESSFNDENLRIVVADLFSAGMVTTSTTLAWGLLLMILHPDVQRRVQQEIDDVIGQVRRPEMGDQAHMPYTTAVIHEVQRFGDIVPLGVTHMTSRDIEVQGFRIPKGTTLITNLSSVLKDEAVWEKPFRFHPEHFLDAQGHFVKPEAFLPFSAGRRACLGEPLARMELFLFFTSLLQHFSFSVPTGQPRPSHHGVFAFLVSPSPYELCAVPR

[4] = DRUGMATRIX: Calcium Channel Type L, Dihydropyridine radioligand binding (ligand: [3H] Nitrendipine); assay type: cell membranes, Rattus norvegicus, Wistar, Cerebral cortex, Membrane; conditions: Not Active = under 50% inhibition at 10 µM
Glycine receptor = Glycine receptor (Rattus norvegicus, UniProt P22771+P24524+P07727+P20781); assay type: cell membranes, Wistar, Spinal cord, Membrane; also: in other assays of this panel Not Active means under 50% inhibition at 10 µM
[5] = biological target: cGMP-specific 3',5'-cyclic phosphodiesterase (Homo sapiens, UniProt O76074); assay: DRUGMATRIX: Phosphodiesterase PDE5 enzyme inhibition (substrate: [3H]cGMP + cGMP); assay type: tissue-based; conditions: platelet; Not Active = under 50% inhibition at 10 µM

| SMILES | IC50 [1] | Ki [1] | IC50 [2] | IC50 [3] | IC50 (Cytochrome P450 2D6) | Ki (Cytochrome P450 2D6) | IC50 [4] | Ki [4] | IC50 (Glycine receptor) | IC50 [5] | IC50 ([4]; read-out: IC50) | Ki ([4]; read-out: Ki) |
| --- | --- | --- | --- | --- | --- | --- | --- | --- | --- | --- | --- | --- |
| C[C@H]1O[C@@H](O[C@H]2[C@@H](O)C[C@H](O[C@H]3[C@@H](O)C[C@H](O[C@H]4CC[C@@]5(C)[C@H](CC[C@@H]6[C@@H]5CC[C@]5(C)[C@@H](C7=CC(=O)OC7)CC[C@]65O)C4)O[C@@H]3C)O[C@@H]2C)C[C@H](O)[C@@H]1O [DIGITOXIN] | Not Active | Not Active | Not Active | Not Active | Not Active | Not Active | Not Active | Not Active | Not Active | Not Active |  |  |
| C[N+](C)(C)CCO.[Cl-] [CHOLINE CHLORIDE] | Not Active | Not Active | Not Active | Not Active | Not Active | Not Active | Not Active | Not Active | Not Active | Not Active |  |  |
| O=S(=O)([O-])CCS.[Na+] [MESNA] | Not Active | Not Active | Not Active | Not Active | Not Active | Not Active | Not Active | Not Active | Not Active | Not Active |  |  |
| COc1ccccc1C(=O)N1CCC(Cc2ccccc2)CC1 | Not Active | Not Active | Not Active | Not Active | Not Active | Not Active | Not Active | Not Active | Not Active | Not Active |  |  |
| CCC1=C[C@@H]2CN(C1)Cc1c([nH]c3ccccc13)[C@@](C(=O)OC)(c1cc3c(cc1OC)N(C)[C@H]1[C@@](O)(C(=O)OC)[C@H](OC(C)=O)[C@]4(CC)C=CCN5CC[C@]31[C@@H]54)C2 [VINORELBINE] | Not Active | Not Active | Not Active | Not Active | Not Active | Not Active | Not Active | Not Active | Not Active | Not Active |  |  |
| CCOC(=O)[C@H](CCc1ccccc1)N[C@H]1CCc2ccccc2N(CC(=O)O)C1=O [BENAZEPRIL] | Not Active | Not Active | Not Active | Not Active | Not Active | Not Active | Not Active | Not Active | Not Active | Not Active |  |  |
| CC(=O)Nc1c(I)c(NC(C)=O)c(I)c(C(=O)O)c1I [DIATRIZOIC ACID] | Not Active | Not Active | Not Active | Not Active | Not Active | Not Active | Not Active | Not Active | Not Active | Not Active |  |  |
| CCOC(=O)C1=C(C)NC(C)=C(C(=O)OC)C1c1cccc([N+](=O)[O-])c1 (stereo not given) [NITRENDIPINE] | Not Active | Not Active | Not Active | Not Active | Not Active | Not Active |  |  | Not Active | Not Active | 0.383 nM | 0.246 nM |
| O=C1CC[C@H](N2C(=O)c3ccccc3C2=O)C(=O)N1 | Not Active | Not Active | Not Active | Not Active | Not Active | Not Active | Not Active | Not Active | Not Active | Not Active |  |  |
